This passage reports Kd results from patent US12421220B2, “Bicyclic-substituted glutarimide cereblon binders” (C4 THERAPEUTICS, INC., priority 2022, dated 2025).

The experiment addresses CRBN-DDB1 (CRBN_DDB1.3) (Homo sapiens, UniProt Q96SW2). The experiment can be described thus: Fluorescence polarization (FP) binding assay, CRBN_DDB1.3 construct. The following applies: 0.05% PA, 0.1% BSA. The procedure:
Example 2: Fluorescence Polarization (FP) Assay for Screening Compound Ligand Binders of CRBN-DDB1
Measuring compound ligand binding to CRBN-DDB 1 was carried out using an established sensitive and quantitative in vitro fluorescence polarization (FP) based binding assay. (See, I. J. Enyedy et al, J. Med. Chem., 44: […] [2001]). Compounds were dispensed from serially diluted DMSO stock into black 384-well compatible fluorescence polarization plates using an Echo acoustic dispenser. Compound binding to CRBN-DDB 1 was measured by displacement of an established CRBN binding ligand conjugated to an Alexa Fluor® dye (probe). A […] mixture containing 10nM CRBN-DDB1 and 5 nM probe in 50 mM Hepes, pH 7.4, 200 mM NaCl, 1% DMSO, 0.1% BSA and 0.05% o pluronic acid-127 acid was added to wells containing compound and incubated at room temperature for 60 min. Matching control wells excluding CRBN-DDB 1 were used to correct for background fluorescence. Plates were read on an Envision plate reader with appropriate FP filter sets. The corrected S (perpendicular) and P (parallel) values were used to calculate fluorescence polarization (FP) with the following equation: FP=1000*(S−G*P)/(S+G*P).
The fractional amount of bound probe (FB) to CRBN-DDB 1 as a function of compound concentration was fitted according to Wang; FEBS Letters 360, (1995), 111-114 to obtain fits for parameter offsets and binding constant (KA) of competitor compound.
(Polarisation of emitted light reports the rotation of a fluorescent probe.)

Where [1] appears, read: indoline binders, read-out: FP CRBN_DDB1.3 0.05% PA, 0.1% BSA ka nM.
Where [2] appears, read: tetrahydroquinoline binders, read-out: FP CRBN_DDB1.3 0.05% PA, 0.1% BSA ka nM.
The mark [3] stands for this setting: benzomorpholine binders, read-out: FP CRBN_DDB1.3 0.05% PA, 0.1% BSA Ka nM.

Like-named read-outs stand apart in the source and are kept apart here.

Sequence of CRBN-DDB1 (CRBN_DDB1.3) (Q96SW2 318-426 limits assumed): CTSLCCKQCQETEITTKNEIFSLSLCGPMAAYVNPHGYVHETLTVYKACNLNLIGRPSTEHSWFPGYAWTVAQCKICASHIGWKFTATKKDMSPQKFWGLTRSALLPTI

`CC(C)(C)OC(=O)CC1CCN(c2cccc3c2CCN3[C@H]2CCC(=O)NC2=O)CC1` (single isomer, unassigned) [Compound 39-5]: under setting [1], the Kd was below 100000 nM.
Turning to `O=C1CC[C@H](N2CCCc3c(N4CCC(CCO)CC4)cccc32)C(=O)N1` (single isomer, unassigned) [Compound 66-4], the Kd under setting [2] was below 1000 nM.
On to `O=C1CCC(c2cccc3c2OCCN3C2CCC(=O)NC2=O)CC1` (stereo not drawn) [Compound 5-14, 3-[8-(4-oxocyclohexyl)-2,3-dihydro-1,4-benzoxazin-4-yl]piperidine-2,6-dione], for which the Kd under setting [3] is at most 100000 nM.
On to `O=C1CC[C@@H](N2CCc3c(N4CCC(CO)CC4)cccc32)C(=O)N1` (single isomer, unassigned) [Compound 53-6], for which the Kd under setting [1] is below 100000 nM.
Consider `CN(C(=O)OC(C)(C)C)C1CCN(c2cccc3c2OCCN3[C@@H]2CCC(=O)NC2=O)CC1` (single isomer, unassigned) [Compound 16-7], for which, under setting [3], the Kd was at most 1000 nM.
As to `O=C1CCC(N2CCc3c(N4CCC(C(F)(F)CO)CC4)cccc32)C(=O)N1` (stereo not drawn) [Compound 51-12, 3-[4-[4-(1,1-difluoro-2-hydroxy-ethyl)-1-piperidyl]indolin-1-yl]piperidine-2,6-dione], the Kd under setting [1] was below 100000 nM.
Regarding `CN(C(=O)OC(C)(C)C)C1CCN(c2cccc3c2OCCN3[C@H]2CCC(=O)NC2=O)CC1` (single isomer, unassigned) [Compound 16-6], the Kd under setting [3] is at most 100000 nM.
`O=C1CCC(N2CCc3c(N4CCC(CCO)CC4)cccc32)C(=O)N1` (racemic) [Compound 42-4, 3-[4-[4-(2-hydroxyethyl)-1-piperidyl]indolin-1-yl]piperidine-2,6-dione]: under setting [1], the Kd was below 100000 nM.
Still for that read-out and setting: as for `CC(C)(C)OC(=O)C1CCN(c2cccc3c2CCN3[C@H]2CCC(=O)NC2=O)CC1` (single isomer, unassigned) [Compound 48-6], the figure is below 100000 nM; as for `CC(C)(C)OC(=O)N1CCC(c2cc3c(cc2F)N([C@H]2CCC(=O)NC2=O)CC3)CC1` (single isomer, unassigned) [Compound 52-6], below 1000 nM; as for `CN(C(=O)OC(C)(C)C)[C@H]1CC[C@@H](c2c(F)cc3c(c2F)CCN3[C@H]2CCC(=O)NC2=O)CC1` (single isomer, unassigned) [Compound 55-6], below 100000 nM.
Regarding `CC(C)(C)OC(=O)CN1CCC(c2cccc3c2CCCN3[C@H]2CCC(=O)NC2=O)CC1` (single isomer, unassigned) [Compound 60-3], the Kd under setting [2] was below 1000 nM.
Regarding `CNC1CCN(c2cccc3c2O[C@@H](C)CN3C2CCC(=O)NC2=O)CC1` (stereo partly drawn) [Compound 18-13, 3-[(2S)-2-methyl-8-[4-(methylamino)-1-piperidyl]-2,3-dihydro-1,4-benzoxazin-4-yl]piperidine-2,6-dione], the Kd under setting [3] is at most 100000 nM.
On the same count and under the same terms, as for `O=C1CCC(c2ccnc3c2OCCN3C2CCC(=O)NC2=O)CC1` (stereo not drawn) [Compound 8-10, 3-(8-(4-oxocyclohexyl)-2,3-dihydro-4H-pyrido[3,2-b][1,4]oxazin-4-yl)piperidine-2,6-dione], the figure is at most 100000 nM; as for `O=C1CCC(N2CCOc3c(N4CCC(O)(C(=O)O)CC4)cccc32)C(=O)N1` (stereo not drawn) [Compound 27-8, 1-[4-(2,6-dioxo-3-piperidyl)-2,3-dihydro-1,4-benzoxazin-8-yl]-4-hydroxy-piperidine-4-carboxylic acid], at most 100000 nM.
With `CC(C)(C)OC(=O)N1CCN(c2cccc3c2CCCN3[C@@H]2CCC(=O)NC2=O)CC1` (single isomer, unassigned) [Compound 68-4], the Kd under setting [2] was below 1000 nM.
As for `CC(C)(C)OC(=O)N1CC[C@H]2CN(c3cccc4c3CCN4[C@H]3CCC(=O)NC3=O)CC[C@H]21` (single isomer, unassigned) [Compound 56-8a], under setting [1], the Kd was below 100000 nM.
As to `CC(C)(C)OC(=O)CC1(O)CCN(c2cccc3c2CCN3[C@H]2CCC(=O)NC2=O)CC1` (single isomer, unassigned) [Compound 38-6], the Kd under setting [1] is below 100000 nM.
As for `O=C1CC[C@@H](N2CCCc3c(N4CCC(CCO)CC4)cccc32)C(=O)N1` (single isomer, unassigned) [Compound 66-5], the Kd under setting [2] is below 100000 nM.
In the case of `CC(C)(C)OC(=O)C1CCN(c2cccc3c2CCN3[C@@H]2CCC(=O)NC2=O)CC1` (single isomer, unassigned) [Compound 48-7], the Kd under setting [1] is below 100000 nM.
Same read-out and setting: as for `CC(C)(C)OC(=O)N1CC[C@@H]2CN(c3cccc4c3CCN4[C@H]3CCC(=O)NC3=O)CC[C@@H]21` (single isomer, unassigned) [Compound 56-8b], the figure is below 100000 nM.
Turning to `CN(C(=O)OC(C)(C)C)C1CCN(c2cccc3c2CCCN3[C@@H]2CCC(=O)NC2=O)CC1` (single isomer, unassigned) [Compound 61-6], the Kd under setting [2] was below 1000 nM.
For the compound `O=C1CCC(N2CCOc3c([C@@H]4CCNC4)cccc32)C(=O)N1` (stereo partly drawn) [Compound 14-7, 3-(8-((S)-pyrrolidin-3-yl)-2H-benzo[b][1,4]oxazin-4(3H)-yl)piperidine-2,6-dione], the Kd under setting [3] is at most 100000 nM.
Regarding `CC(C)(C)OC(=O)N1CCC(c2ccc3c(c2)CCN3[C@H]2CCC(=O)NC2=O)CC1` (single isomer, unassigned) [Compound 40-6], the Kd under setting [1] is below 100000 nM.
On to `O=C1CCC(N2CCOc3c([C@@H]4CCCNC4)cccc32)C(=O)N1` (stereo partly drawn) [Compound 13-11, 3-[8-[(3S)-3-piperidyl]-2,3-dihydro-1,4-benzoxazin-4-yl]piperidine-2,6-dione], for which the Kd under setting [3] was at most 100000 nM.
As to `CN(C(=O)OC(C)(C)C)[C@H]1CC[C@H](c2c(F)cc3c(c2F)CCN3[C@@H]2CCC(=O)NC2=O)CC1` (single isomer, unassigned) [Compound 55-5], the Kd under setting [1] is below 100000 nM.
Take `CC(C)(C)OC(=O)CN1CCC(c2cccc3c2OCCN3[C@H]2CCC(=O)NC2=O)CC1` (single isomer, unassigned) [Compound 24-3]: the Kd under setting [3] is at most 100000 nM.
Turning to `CC(C)(C)OC(=O)CN1CCC(c2cccc3c2OCCN3[C@@H]2CCC(=O)NC2=O)CC1` (single isomer, unassigned) [Compound 24-4], the Kd under setting [3] was at most 100000 nM.
For the compound `CC(C)(C)OC(=O)N1CCC(OC2CCN(c3cccc4c3CCCN4[C@H]3CCC(=O)NC3=O)CC2)CC1` (single isomer, unassigned) [Compound 67-6], the Kd under setting [2] is below 100000 nM.
As to `O=C1CCC(N2CCOc3c([C@H]4CCCNC4)cccc32)C(=O)N1` (stereo partly drawn) [Compound 13-8, 3-[8-[(3R)-3-piperidyl]-2,3-dihydro-1,4-benzoxazin-4-yl]piperidine-2,6-dione], under setting [3], the Kd is at most 100000 nM.
For `CC(C)(C)OC(=O)N1CCC(c2ccc3c(c2)CCN3[C@@H]2CCC(=O)NC2=O)CC1` (single isomer, unassigned) [Compound 40-5], under setting [1], the Kd was below 1000 nM.
With `CN(C(=O)OC(C)(C)C)C1CCN(c2cccc3c2CCCN3[C@H]2CCC(=O)NC2=O)CC1` (single isomer, unassigned) [Compound 61-5], the Kd under setting [2] is below 100000 nM.
For the compound `CC(C)(C)OC(=O)N1CCC(c2cc3c(cc2F)N([C@@H]2CCC(=O)NC2=O)CC3)CC1` (single isomer, unassigned) [Compound 52-7], under setting [1], the Kd is below 100000 nM.
On the same count and under the same terms, as for `CC(C)(C)OC(=O)C1CCN(Cc2cccc3c2CCN3[C@@H]2CCC(=O)NC2=O)CC1` (single isomer, unassigned) [Compound 54-7], the figure is below 100000 nM.
Regarding `CC(C)(C)OC(=O)N1CCC(OC2CCN(c3cccc4c3CCCN4[C@@H]3CCC(=O)NC3=O)CC2)CC1` (single isomer, unassigned) [Compound 67-7], under setting [2], the Kd was below 1000 nM.
Consider `CC(C)(C)OC(=O)N1CCN(c2cccc3c2CCCN3[C@H]2CCC(=O)NC2=O)CC1` (single isomer, unassigned) [Compound 68-3], for which the Kd under setting [2] is below 100000 nM.
In the case of `O=C1CCC(N2CCOc3c(C4CCC5(CCNCC5)CC4)cccc32)C(=O)N1` (stereo not drawn) [Compound 20-7, 3-[8-(3-azaspiro[5.5]undecan-9-yl)-2,3-dihydro-1,4-benzoxazin-4-yl]piperidine-2,6-dione], the Kd under setting [3] was at most 100000 nM.
Regarding `CN(C(=O)OC(C)(C)C)[C@H]1CC[C@H](c2c(F)cc3c(c2F)CCN3[C@H]2CCC(=O)NC2=O)CC1` (single isomer, unassigned) [Compound 55-4], the Kd under setting [1] was below 100000 nM.
Same read-out and setting: as for `CC(C)(C)OC(=O)N1CC[C@H]2CN(c3cccc4c3CCN4[C@@H]3CCC(=O)NC3=O)CC[C@H]21` (single isomer, unassigned) [Compound 56-9a], the figure is below 100000 nM; as for `CC(C)(C)OC(=O)CC1CCN(c2cccc3c2CCN3[C@@H]2CCC(=O)NC2=O)CC1` (single isomer, unassigned) [Compound 39-6], below 1000 nM.
Same read-out and setting: as for `CN(C(=O)OC(C)(C)C)[C@H]1CC[C@@H](c2c(F)cc3c(c2F)CCN3[C@@H]2CCC(=O)NC2=O)CC1` (single isomer, unassigned) [Compound 55-7], the figure is below 100000 nM.
Same read-out and setting: as for `CC(C)(C)OC(=O)CC1(O)CCN(c2cccc3c2CCN3[C@@H]2CCC(=O)NC2=O)CC1` (single isomer, unassigned) [Compound 38-7], the figure is below 1000 nM.
